The test system of assay [1] is iNOS biosynthesis of NO in C2C12 myocytes. Nature of the assay: Inhibition of LTI (LPS/TNFα/IFγ)-stimulated iNOS biosynthesis of NO in C2C12 myocytes. It counts as cell-based, murine. As to conditions: Mus musculus.
Description: The Model—The C2C12 murine myocyte model was used in this Example. This model was selected to serve as the surrogate for muscle cells of the bladder that are exposed to the inflammatory stimuli of the invading bacteria, modeled by lipopolysaccharide (LPS), as well as the counter-inflammatory responses of the bladder infiltrating macrophage, modeled by interferon gamma (IFγ) and tumor necrosis factor alpha (TNFα). […] A significant increase in baseline NO production in cats with feline interstitial cystitis compared with that in healthy cats has been found in smooth muscle and mucosal strips.
(§1) Cell culture and treatment—Mouse C2C12 myoblasts (American Type Culture Collection, Manassas, Va.) were maintained in Dulbecco's modified Eagle's medium (DMEM) supplemented with 10% fetal calf serum (FCS), 50 units/ml penicillin and 50 μg/ml streptomycin. As cells reached confluence, the medium was switched to the differentiation medium containing DMEM and 2% horse serum. Medium was changed every other day. After 4 additional days, the differentiated C2C12 cells had fused into myotubes, which were then treated in serum-free DMEM with either vehicle alone (0.1% DMSO), or 50, 10, 5, or 1 μg thymoquinone/mL for 1 hour and then stimulated with a cytokine mixture containing 1 μg LPS/mL, 50 ng TNFα/mL and 100 U IFγ/mL (LTI) for 20 hours. At the end of the treatment period, media were sampled for determination of NO.
Nitric oxide determination—NBD methylhydrazine (NBDM, N-methyl-4-hydrazino-7-nitrobenzofurazan) was used to detect N-methyl-4-amino-7-nitrobenzofuazan, the fluorescent product of the NBDM reagent with nitrite (Buldt A, Karst U. Determination of nitrite in waters by microplate fluorescence spectroscopy and HPLC with fluorescence detection. Anal Chem. Aug. 1, 1999; 71(15):3003-3007). In a separate, black-walled, 96-well, microtiter plate, a 7 μL aliquot of a 4.8×10^−4 mol NBDM/L solution was added to 200 μL of the supernatant media followed by the addition of 15 μL of concentrated phosphoric acid. After a reaction time of 30 minutes at ambient temperature, the fluorescence was read with 485 nm excitation filter and a 530 nm emission filter in a Packard Fluorocount spectrofluorometer (Model#BF10000, Meridan, Conn.). Fluoresence was linear in the range of 3.59×10^−7 to 1.44×10^−5 mol nitrite/L. The standard deviation was 3.5 percent for 1.44×10^−6 mol nitrite/L. Experiments were performed a minimum of three times with eight replicates per dose, capturing the median inhibitory concentration (IC50) when possible.
Calculations—The median inhibitory concentrations (IC50) and 95% confidence interval were calculated using CalcuSyn (BIOSOFT, Ferguson, Mo.). This statistical package performs multiple drug dose-effect calculations using the Median Effect methods described by Chou and Talalay [Chou T C, Talalay P. Quantitative analysis of dose-effect relationships: the combined effects of multiple drugs or enzyme inhibitors. Adv Enzyme Regul. 1984; 22:27-55].
The Model—The C2C12 murine myocyte model as described in Example 1 was used.
as §1, with “units/mL” for “units/ml”, “μg/mL of the thymoquinone test formulation” for “μg thymoquinone/mL”, “IFγ/mL” for “IFγ/mL (LTI)”, “NO. […]” for “NO.”

For assay [2], the system named is NO production in LPS-stimulated macrophages. Conditions: single stimulating agent, El-Mahmoudy 2002; cited from earlier work.
The conditions of assay [3]: 1500 to 3000 mg/day in humans, 19 subjects, reduced from 7.5; Jarrar 1996; cited from earlier work.
Where [4] appears, read: pure compounds from Sigma, LTI-stimulated C2C12 myocytes as in Example 1, read-out: median inhibitory concentration.

Converted amounts (≈) assume the structure as drawn. Like-named read-outs stand apart in the source and are kept apart here. Bounds are passed on as bounds.

As to `CC1=CC(=O)C(C(C)C)=CC1=O` [thymoquinone], the IC50 in assay [1] (C2C12 myotubes, 1 h pre-treatment, then LPS/TNFα/IFγ mixture for 20 h, 95% confidence interval 1.1 to 2.3 μg/mL, read-out: median inhibitory concentration of iNOS-mediated NO production) amounted to 1.6 µg/mL (≈ 9.74 µM); in assay [1] (LTI-stimulated C2C12 myocytes, adjusted for thymoquinone content, brackets = 95% confidence interval, read-out: Adjusted iNOS (IC50)), 1.6 µg/mL (≈ 9.74 µM). Further, the “IC50 inhibiting NO production” value in assay [2] was 1.4 to 2.8 µg/mL.

On to `Cc1ccc(C(C)C)cc1` [cymene], for which the IC50 in assay [1] (setting [4]) was no less than 10 µg/mL.

Turning to `Cc1ccc(C(C)C)cc1O` [carvacrol], in assay [1] (C2C12, read-out: median inhibitory concentration), the IC50 was no less than 10 µg/mL.

As to `CSCC[C@H](N)C(=O)O` [Methionine], the “mean pH values of the urine after treatment” value in assay [3] is given as 5.5.

As for `CC=Cc1ccc(OC)cc1` [anethole], the IC50 in assay [1] (setting [4]) was no less than 10 µg/mL.

For `Cc1ccc(C(C)C)c(O)c1` [thymol], the IC50 in assay [1] (setting [4]) was no less than 10 µg/mL.

Source of the values: patent US8029831B2, “Formulations containing thymoquinone for urinary health” (Bionexus, Ltd., priority 2008, dated 2011).
